The source of these data is PubChem BioAssay AID179 (DTP/NCI, 2004).

Several values for one entry are separate records, joined by “and”; a condition that tells them apart may be missing. Equal values may be shown once. Activity calls are given as the source filed them.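 Rule for the calls: active = compounds giving half or more protection of infected cells from virus-caused growth loss, again on retest; inactive = the rest.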 Where a SMILES comes first, the peptide text is derived from it. The star is where a group is joined. Boc = CC(C)(C)OC(=O)* Bounds are passed on as bounds.

The assay has as its system CEM cells HIV-1 protection, formazan growth assay. The assay can be described thus: NCI AIDS Antiviral Assay. The settings on record: for IC50: measured here: growth of uninfected CEM cells. An outline of the steps: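 Steps: treat uninfected and HIV-1-infected human CEM cells at five drug levels; quantify growth by soluble formazan; retest any compound reaching 50% protection; classify actives from the retest.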

On to `Clc1ccc2c(c1)Oc1ccccc1C=N2`, for which the EC50 (usually the concentration at which the effect is half-maximal) was > 363 µM and the IC50 (usually the midpoint of a concentration-inhibition curve) was found to be 6.31 µM.

As to `NP(=O)(OCC1=CC(=O)c2ccccc2C1=O)N(CCBr)CCBr` (stereo unspecified), the outcome was inactive.

Turning to `COc1ccc2cc1Oc1ccc(cc1)CC1c3cc(c(OC)cc3CCN1C)Oc1c3c(cc4c1C(C2)N(C)CC4)OCO3` (stereo unspecified), the result was inactive.

In the case of `COc1ccc(NC(=S)N/N=C(/C)c2ccccn2)cc1`, the EC50 was > 0.2 µM and the IC50 was 0.115 µM.

Turning to `COCC(C)(C)N=CN1CCc2ccccc2C1`, the EC50 is > 1000 µM and the IC50 is > 1000 µM.

Consider `CC(C)=C1C(=O)NC(=O)C1C(N)=O` (stereo unspecified), for which the EC50 is > 200 µM and the IC50 is > 200 µM.

Turning to `C/C(O)=C(/C=N\C(=S)Nc1ccc(Cl)c(Cl)c1)C(=O)Nc1ccccc1C`, the EC50 is > 79.4 µM and the half-maximal inhibitory concentration (IC50) was 40.7 µM.

Consider `Cc1ccc(N=C2SC(=NN(C)C)SC2=Nc2ccc(C)cc2)cc1`, for which the EC50 is > 200 µM and the 50% inhibitory concentration (IC50) is > 200 µM.

Take `CC(=O)[C@@H](C)C(=O)N1C(=O)OC[C@@]12[C@@H]1CC[C@@H](C1)C2(C)C`: the EC50 was > 200 µM and the IC50 was > 200 µM.

As for `CC[C@]12CN3CCc4c([nH]c5ccccc45)[C@@](C(=O)OC)(c4cc5c(cc4OC)N(C)[C@H]4[C@@](O)(C(=O)OC)[C@H](OC(C)=O)[C@]6(CC)C=CCN7CC[C@]54[C@@H]76)CC(C3)[C@H]1O2` (stereo partly specified), the EC50 was > 2 µM; the IC50 is 0.141 µM and 0.0447 µM.

Turning to `CN=C1N[N+]2=CCSCC2(C)S1` (stereo unspecified), the result was inactive.

In the case of `CC(=O)OCC1OC(OCCCOP(=S)(OCCC#N)OCC2OC(n3ccc(N)nc3=O)C(OC(=O)c3ccccc3)C2OC(=O)c2ccccc2)C(OC(C)=O)C(OC(C)=O)C1OC(C)=O` (stereo unspecified), the EC50 was > 100 µM and the IC50 is > 100 µM.

With `Cc1csc2nc(-c3cccs3)nn12`, the EC50 is > 200 µM and the IC50 was > 200 µM.

Turning to `CC1=NN(c2ccccc2)C(=O)/C1=C1\SS/C(=C2\C(=O)N(c3ccccc3)N=C2C)S1`, the EC50 was > 100 µM and the IC50 was > 100 µM.

`O=[N+]([O-])c1ncnc2c1ncn2C1OC(CO)CC1F` (stereo unspecified): the EC50 was > 89.1 µM and the IC50 turned out to be 28.2 µM.

With `COC(=O)C1CC(c2ccc(Cl)cc2)=NO1` (stereo unspecified), the EC50 is > 282 µM and the IC50 is > 282 µM.

On to `C=CCN1C2Cc3cc(OC)c(OC)cc3C1Cc1cc(OC)c(OC)cc12`, for which the EC50 was > 603 µM and the IC50 was found to be 135 µM.

For `COC(=O)C(C)NC(=O)C(CCSC)NC(=O)C(Cc1ccccc1)NC(=O)OC(C)(C)C` (stereo not drawn) (Boc-Phe-Met-Ala-OMe; configuration not given here), the EC50 is > 200 µM.

For the compound `O=c1cc(O)nc2cn[nH]n12`, the EC50 is > 234 µM and the IC50 was > 234 µM.

In the case of `CCCN(CCCCC(NC(C)=O)C(=O)NCc1ccccc1)C(=O)N(C)N=O` (stereo unspecified), the EC50 is > 89.1 µM and the IC50 was > 89.1 µM.

Regarding `CC(=O)NC1C(CO)O[C@@H]2OC(C)(C)O[C@H]12` (stereo partly specified), the EC50 is > 200 µM and the IC50 was > 200 µM.

For `COc1cc(Cl)c2c3c(c(C(=O)c4ccccc4)oc13)CCC2`, the outcome was inactive.

Regarding `CC(=O)[CH-]C(C)=O.CC(=O)[CH-]C(C)=O.[CH2-]CCCCCCC.[CH2-]CCCCCCC.[Sn+4]`, the EC50 is > 47.9 µM and the IC50 was > 47.9 µM.

For `CC(C(=O)O)c1ccc(C(=O)c2cccs2)cc1` (stereo unspecified), the EC50 is > 200 µM and the 50% inhibitory concentration (IC50) is > 200 µM.

On to `O=C(O)c1ccccc1C(=O)c1ccc(O)cc1`, for which the EC50 was > 200 µM and the IC50 was > 200 µM.

For the compound `N#CCC1C2CC3C(C2=O)C13` (stereo unspecified), the EC50 was > 200 µM and the IC50 is > 200 µM.

On to `CCN(CC)c1ccc(C(=C2C=CC(=[N+](CC)CC)C=C2)c2ccc(S(=O)(=O)O)cc2S(=O)(=O)[O-])cc1`, for which the result was inactive.

Take `N#C/C(=C\c1ccc(Cl)cc1)c1ccccc1[N+](=O)[O-]`: the EC50 was > 200 µM and the IC50 amounted to 120 µM.

In the case of `CCN(CC)c1ccc(N=C2C=CC(=C(C#N)C#N)c3ccccc32)c(C)c1`, the outcome was inactive.

For `Cc1ccc(-c2cn3c(nc4ccccc43)c(-c3ccccc3)n2)cc1`, the EC50 was > 200 µM and the IC50 stood at 174 µM.

For `Cc1nc2cn3c(c2c(=O)[nH]1)CCCCC3`, the EC50 was > 200 µM and the IC50 was > 200 µM.

With `COc1ccc(C(=O)/C=C/c2ccncc2)cc1OC`, the EC50 is > 200 µM and the IC50 was found to be 3.02 µM.

For the compound `CCOC(=O)c1nc2cc(F)c(N3CCOCC3)cc2[nH]c1=O`, the EC50 was > 200 µM and the IC50 came out at 95.5 µM.

For `CC12CCC(C(=Nc3cc(C(F)(F)F)cc(C(F)(F)F)c3)C1=O)C2(C)C` (stereo unspecified), the EC50 is > 200 µM and the IC50 worked out at 37.2 µM.

On to `CC1C(c2ccc3c(c2)OCO3)CC(Cl)CC12C=C1OCOC1=CC2=O` (stereo unspecified), for which the EC50 was > 69.2 µM and the IC50 was 47.9 µM.

Consider `CCCCOC(=O)NC(=O)c1cc2cc(Cl)cc(Cl)c2oc1=O`, for which the EC50 is > 13.8 µM and the IC50 is > 13.8 µM.

For `CC(CCCC1SCC2NC(=O)NC21)C(=O)O` (stereo unspecified), the EC50 was > 977 µM and the IC50 is > 977 µM.

On to `Clc1ccc(NC2=NCCCS2)c2ccccc12`, for which the EC50 is > 200 µM and the IC50 stood at 42.7 µM.

In the case of `C/C(O)=C(\C=N\C(N)=S)C(=O)Nc1ccccc1C`, the EC50 was > 200 µM and the IC50 was > 200 µM.

Regarding `COc1ccccc1NC(=O)C1=C(C)NC(C)=C(C(=O)Nc2ccccc2OC)C1c1ccco1`, the outcome was inactive.

With `CCCCCCCCCCCC(=O)OCC(O)CO` (stereo unspecified), the EC50 was > 100 µM and the IC50 was 51.3 µM.

On to `COC(=O)CC1C(COC(C)=O)OC(n2ccc(=O)[nH]c2=O)C1OC(C)=O` (stereo unspecified), for which the EC50 was 0.537 µM and the IC50 was > 200 µM.

Consider `Cn1cnc([N+](=O)[O-])c1Sc1ncnc2nc[nH]c12`, for which the EC50 was > 200 µM and the IC50 came out at 10.7 µM.

With `CC(=O)N1c2ccccc2C(C)C1c1[nH]c2ccccc2c1C` (stereo unspecified), the EC50 was > 200 µM and the IC50 is 30.2 µM.

`COc1cc(NCCCNCC(C)(C)C)c2ncccc2c1`: the EC50 was > 200 µM and the IC50 amounted to 81.3 µM.

For `O=c1[nH]c2cc3[nH]c(=O)c(=O)[nH]c3cc2[nH]c1=O`, the EC50 is > 200 µM and the IC50 is > 200 µM.

As for `COc1ccc(/C=C2\C=Cc3ccccc32)cc1`, the EC50 is > 16.2 µM and the IC50 is 13.8 µM.

In the case of `CSC1NC(c2ccc(Cl)cc2)=C(C#N)C(=O)N1C1OCC(OC(C)=O)C(OC(C)=O)C1OC(C)=O` (stereo unspecified), the EC50 is > 200 µM and the IC50 amounted to 30.9 µM.

`CC1(C)OC2OC(COC(=O)C=[N+]=[N-])C3OC(C)(C)OC3C2O1` (stereo unspecified): the EC50 was > 200 µM and the IC50 is > 200 µM.

As to `Cc1cccc(/C=N/NC(=S)NCc2ccccn2)n1`, the EC50 is > 200 µM and the IC50 amounted to 29.5 µM.

On to `CCC(C)C1(C2CCCC2)NC(=O)NC1=O` (stereo unspecified), for which the EC50 was > 200 µM and the IC50 is > 200 µM.

For `c1ccc2c(c1)oc1cc3c(cc12)n1nnnc1c1cccn31`, the EC50 is > 200 µM and the IC50 was > 200 µM.

For the compound `COc1ccccc1C1c2cc3c(cc2OC2(OC)COC(=O)C12)OCO3` (stereo unspecified), the EC50 was > 200 µM and the IC50 came to 10.2 µM.

Regarding `O=[N+]([O-])c1ccc2c(c1)OCCOCCOc1ccc([N+](=O)[O-])cc1OCCOCCO2`, the outcome was inactive.

For `c1ccc(Nc2nn3c(CCCCCCCCc4nnc5sc(Nc6ccccc6)nn45)nnc3s2)cc1`, the EC50 was > 200 µM and the IC50 stood at 39.8 µM.

Consider `N#Cc1c(N)[nH]c2ccc(Sc3ccccc3)cc12`, for which the EC50 was > 70.8 µM and the IC50 was determined as 0.0832 µM.

As to `SCc1ccc(-c2ccc(CS)cc2)cc1`, the EC50 was > 4.27 µM and the concentration for half-maximal inhibition (IC50) is > 4.27 µM.

Turning to `O=c1[nH][nH]c(=O)c2[nH]cnc12`, the result was inactive.

Consider `COC(=O)N/N=C(/c1nc2ccc([N+](=O)[O-])cc2[nH]c1=O)C(O)c1ccc(OC)c(OC)c1` (stereo unspecified), for which the EC50 is > 110 µM and the IC50 is > 110 µM.

For the compound `CC(=O)NCC1OC2COC(c3ccccc3)OC2C(NC(=O)c2ccccc2)C1OC(=O)c1ccccc1` (stereo unspecified), the outcome was inactive.

For `Cc1cccc(N=C2NC(=O)C(CC(=O)Nc3ccc(Cl)cc3C)S2)c1` (stereo unspecified), the EC50 was > 18.6 µM and the IC50 was > 18.6 µM.

Regarding `Cc1n[n+](Cc2ccccc2)c2sc(N)nn12`, the EC50 was > 200 µM and the IC50 came out at 40.7 µM.

Take `CC(C)(CO)NC(=O)c1cccc(C(=O)NC(C)(C)CO)c1Br`: the EC50 was > 200 µM and the IC50 was > 200 µM.

For the compound `O=c1[nH]c2ccccc2c2oc3ccccc3c12`, the EC50 was > 200 µM and the IC50 is > 200 µM.

As for `Cn1cc2ccccc2c1-c1nc(F)nc(F)n1`, the EC50 was > 15.1 µM and the IC50 was > 15.1 µM.

As for `O=C(Cc1nc2ccc(C(=O)c3ccccc3)cc2[nH]c1=O)C(=O)Nc1ccccc1[N+](=O)[O-]`, the EC50 is > 79.4 µM and the concentration for half-maximal inhibition (IC50) came to 51.3 µM.

`O=c1/c(=C\C=C\c2ccccc2)sc2n1CCN=2`: the outcome was inactive.

On to `CCOC(=O)c1cc2c3ccn(Cc4ccccc4)c3c3c(C)[nH]oc3c2n1`, for which the EC50 is 26.3 µM and the IC50 was > 200 µM.

`S=c1nn[nH]c2ccccc12`: the EC50 is > 219 µM and the IC50 was > 219 µM.

In the case of `O=C(NO)Nc1ccc(Cl)cc1`, the result was inactive and the IC50 worked out at 251 µM.

For `CSc1nc2c(=O)oc(-c3ccc(Cl)cc3)nc2s1`, the EC50 was > 200 µM and the IC50 was found to be 110 µM.

On to `C1CCC2(CC1)C[N+]1(CCCC1)C1(CCC1)O2`, for which the EC50 is > 200 µM and the IC50 was > 200 µM.

In the case of `Cc1ccc(O)c(OC2OC(C(=O)O)C(O)C(O)C2O)c1` (stereo unspecified), the EC50 was > 832 µM and the IC50 was > 832 µM.

As to `COC(=O)C1(CCSc2ccccc2)CCCC1=O` (stereo unspecified), the EC50 was > 13.5 µM and the IC50 was > 13.5 µM.
